Results on 6 substances are retold here after paper PMC8273887 (Journal of Medicinal Chemistry, 2021).

In one data set the target is T1, CXCR4 (Homo sapiens, UniProt P61073).
T1 construct: expressed in transfected cells; host or cells: COS-7 (African green monkey), transient co-transfection with GαΔ6qi4myr
Briefly: Inositol 1 phosphate (IP1) accumulation assay (HTRF) in COS-7 cells transfected with CXCR4. To be noted: COS-7 transiently co-transfected with CXCR4-eYFP and chimeric GαΔ6qi4myr; stimulation 1 h, 37 °C, triplicate; HTRF; n ≥ 2 independent experiments; read-out: EC50 (CXCR4 activation, IP1 accumulation). It is filed as cell-based. An excerpt: CXCR4 is a member of the G protein-coupled receptor (GPCR) family[58] and proposed as a target receptor for TFF3 to mediate wound healing.[30],[39] We therefore pharmacologically characterized TFF3(C^57Acm) and TFF3 homodimer at CXCR4. We used a chimeric Gαiq protein to switch the pathway to the Gαq signaling, which leads to the activation of the phospholipase and allows measurement of CXCR4 activation through the production of inositol 1 phosphate (IP1).[61]−[63] We measured IP1 accumulation upon stimulation with TFF3(C^57Acm) and TFF3 homodimer in fibroblast-like COS-7 cells transiently transfected with CXCR4.[58] This is a competitive immunoassay, based on the HTRF technology, where native IP1 produced by cells compete with labeled IP1 (acceptor) for binding to anti-IP1-cryptate (donor). The specific signal (i.e., Förster resonance energy transfer, FRET) is inversely proportional to the concentration of IP1 in the sample. The calculation of the fluorescence ratio eliminates possible medium interferences.[64]
COS-7 cells (fibroblast-like cells from African green monkey) were transiently co-transfected with the CXCR4 C-terminally fused to eYFP in pVitro2 vector and the untagged chimeric G protein GαΔ6qi4myr in pcDNA3.1 plasmid using Metafectene Pro according to manufacturer’s protocol. The cells were cultured in DMEM with higher glucose and supplemented with 10% FCS without any antibiotics at 37 °C and 5% CO2 in 95% humidity. Cisbio IP-One Gq assay kit was used according to previous description with minor modifications to measure activity.[80] Briefly, a standard curve was prepared in HBSS (Hanks’ balanced salt solution) with 20 mM LiCl to determine the linear range of the assay and 10 000 cells/well were cultured overnight in a 384-well flat white plate (Greiner Bio-one GmbH, Frickenhausen, Germany). TFF3 and its homodimer as well as CXCL12 were diluted in HBSS containing 20 mM LiCl. Stimulation was carried out for 1 h in triplicate at 37 °C. Subsequently, 3 μL of IP1-d2 and 3 μL of Ab-cryptate in lysis buffer were added to the wells and incubated on a tumbler for 60 min at 25 °C. Fluorescence was then measured at 620 and 665 nm and the HTRF (homogeneous time-resolved fluorescence) ratio (665/620 nm) was calculated. Data analysis was performed with Prism (version 7, GraphPad, La Jolla). Tested compounds were normalized to CXCL12 wild type, with the highest HTRF ratio set to 0% and the lowest HTRF ratio set to 100% response. […] The final concentration range of 10^–12 to 10^–5 M to CXCL12 and 1 or 10 μM to TFF3(C^57Acm) and TFF3 homodimer was achieved by adding the compounds from a threefold concentrated stock solution.
Background: TR-FRET usually uses a lanthanide donor and a delayed reading to cut background.

For the next data set, the system named is porcine pancreatin. The data set is described as follows: simulated intestinal fluid (SIF, containing pancreatic enzymes, pH 6.8). The conditions noted are these: 37 °C, up to 24 h.
A further data set deals with pepsin. Briefly: simulated gastric fluid (SGF, containing pepsin, pH 1.3). The conditions noted are these: porcine, 37 °C, up to 24 h.
For another data set, the system named is trypsin. The data set is described as follows: trypsin.
Data set [1] in a line: Stability in simulated gastric fluid (SGF). It counts as in vitro ADME, porcine. As for the experimental part: (§1) We exposed TFF3(C^57Acm) and TFF3 homodimer to simulated gastric fluid (SGF, containing pepsin, pH 1.3) and simulated intestinal fluid (SIF, containing pancreatic enzymes, pH 6.8), and monitored the mixture over 24 h by analytical RP-HPLC and MS. The N- and C-termini of TFF3 and its homodimer were readily truncated in both SGF and SIF (Figure 4A,B). In SGF, TFF3 was cleaved at Leu^6/Ser^7 followed by cleavage at Glu^54/Ala^55 (t1/2 < 5 min). In SIF, TFF3 was cleaved first at Thr^58/Phe^59 followed by cleavage at Leu^6/Ser^7, Glu^56/Cys^57, and Ala^55/Glu^56 (t1/2 < 5 min). TFF3 homodimer, in both SGF (t1/2 ∼ 40 min) and SIF (t1/2 < 5 min), was first broken down to monomeric TFF3 through simultaneous cleavage at Leu^6 and Glu^54 or Ala^55, eventually leading to the same metabolites as TFF3 (Figure 4B).
(§2) Simulated gastric fluid (SGF) was prepared by dissolving 20 mg of NaCl and 8 mg of pepsin in 70 μL of concentrated HCl (32%), and the volume was diluted to 10 mL with Milli-Q water (pH 1.3).[76],[77] Simulated intestinal fluid (SIF) was prepared by dissolving 68 mg of KH2PO4 in 500 μL of Milli-Q water followed by the addition of 800 μL of 0.2 M NaOH and 100 mg of porcine pancreatin, and the volume was adjusted to 10 mL with Milli-Q water (pH 6.8).[76],[77] Peptide stock solution (1 mM; 15 μL) was added to SGF (285 μL) or SIF (285 μL) and incubated at 37 °C. Samples (30 μL) from SGF and SIF were taken at 0, 5, 15, and 30 min and 1, 2, 4, 8, and 24 h timepoints and subsequently quenched with 30 μL of 0.2 M Na2CO3 (SGF) or 30 μL of 5% aqueous TFA (SIF). The samples were analyzed by analytical RP-HPLC (30 μL) and/or LC-MS (20 μL). The amount of peptide remaining was determined by measuring the peak area and expressing it as a % of the peak area at time 0. Peptide half-life (t1/2) was determined from the peptide degradation profiles using an exponential one-phase decay fit in Prism (version 7, GraphPad, La Jolla). LC-MS analysis was performed in a Q-Star Pulsar mass spectrometer (SCIEX, Ontario, Canada), and the raw data spectra were processed using the peptide reconstruction tool in the BioAnalyst software to identify the mass of the metabolites. The stability of the disulfide bonds was assessed through incubation of the peptides (10 μM) with 10 equiv of reduced glutathione (GSH; 100 μM) in sodium phosphate (50 mM) buffer at pH 7.2. Samples were taken at timepoints 0, 4, 8, and 24 h, quenched by adding 10% TFA, and analyzed by analytical RP-HPLC using an analytical C3 column (Agilent Zorbax SB-C3, 5 μm, 2.1 mm × 250 mm, 300 Å).

A short description of data set [2]: Stability in simulated intestinal fluid (SIF). It is filed as in vitro ADME. To be noted: pig, simulated intestinal fluid (SIF) with porcine pancreatin. As for the experimental part: as §1, §2
The test system of a further data set is SH-SY5Y cells. The data set is described as follows: Antiapoptotic assay (etoposide-induced cell death, caspase-3/7 activity). It counts as cell-based, human. The conditions noted are these: etoposide 10 μM and peptide 10 μM added at the same time, caspase-3/7 activity after 6 h, n ≥ 3 independent experiments.

The term EC50 denotes the concentration needed to bring the measured effect to its halfway point. Broadly, the half-life is how long it takes for the measured level to halve.

“Also recorded” adds a separate entry of the source. Bridge positions count the residues as written; N and C are the ends. Ends that are not written are not given here.

T1 sequence (P61073 whole entry): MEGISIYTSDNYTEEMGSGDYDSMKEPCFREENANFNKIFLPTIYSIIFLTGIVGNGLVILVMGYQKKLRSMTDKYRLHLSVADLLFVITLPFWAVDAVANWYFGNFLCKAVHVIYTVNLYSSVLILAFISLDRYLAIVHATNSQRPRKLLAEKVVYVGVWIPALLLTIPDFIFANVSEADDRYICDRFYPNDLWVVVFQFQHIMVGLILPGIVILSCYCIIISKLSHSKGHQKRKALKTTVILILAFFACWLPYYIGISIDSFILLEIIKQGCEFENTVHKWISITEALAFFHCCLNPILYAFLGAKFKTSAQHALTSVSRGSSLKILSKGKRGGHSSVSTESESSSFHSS
Description for SH-SY5Y cells: (A) Cell death was induced with etoposide (10 μM), and cells were treated with 10 μM of TFF3. Etoposide and TFF3 were added at the same time. Caspase-3/7 activity was measured after 6 h. […] Z-DEVD-FMK (50 μM; caspase-3 inhibitor) was used as the positive control. E: etoposide, E + C3I: etoposide + caspase-3 inhibitor. One-way analysis of variance (ANOVA) followed by Dunnett correction was performed to assess differences between treated cells and etoposide only. *p < 0.05, **p < 0.01.
SH-SY5Y cells were seeded (13–15 × 10^3 cells/well) in 96-well microplates in DMEM with 10% (v/v) fetal calf serum (FCS; Gibco), 2 mM L-glutamine, and 100 units/mL penicillin/streptomycin. The media was replaced with low riboflavin, complete Ham’s F12 medium with 10% (v/v) fetal calf serum, 2 mM L-glutamine, and 100 units/mL penicillin/streptomycin before the live-cell imaging. Cells were treated with the etoposide or the caspase-3 inhibitor or TFF3(C^57Acm) or TFF3 homodimer in the presence of IncuCyte caspase-3/7 green apoptosis reagent. Data were acquired using an IncuCyte ZOOM instrument with standard scan type setting (4 images per well) every 2 h for 48 h.

For the substance “CXCL12: natural CXCR4 ligand; recombinant human CXCL12 from E. coli with additional N-terminal methionine; positive control [reference compound]”, the concentration giving a half-maximal response (EC50) with CXCR4 was found to be 5.9 nM.

Take “EEYVGLSANQCAVPAKDRVDCGYPHVTPKECNNRGCCFDSRIPGVPWCFKPLQEAEC(Acm)TF”: the cleaved bond result in the data set on porcine pancreatin is given as “Thr58-Phe59, first_seen; also recorded: Leu6-Ser7; also recorded: Glu56-Cys57; also recorded: Ala55-Glu56”; in the data set on pepsin it was “Leu6-Ser7, first_seen; also recorded: Glu54-Ala55”.

Turning to “S^7ANQCAVPAKDRVDCGYPHVTPKECNNRGCCFDSRIPGVPWCFKPLQEA^55”, the not cleaved entry in the data set on porcine pancreatin is “remained stable even after 24 h”.

As for “SANQCAVPAKDRVDCGYPHVTPKECNNRGCCFDSRIPGVPWCFKPLQE”, the not cleaved entry in the data set on pepsin is “stable in SGF with a half-life over 24 h”.

As for “QCAVPAKDRVDCGYPHVTPKECNNRGCCFDSRIPGVPWCFK”, in the data set on trypsin, the cleaved bond entry is “cleavages at Lys^16, Arg^18, and Arg^41; also recorded: Arg41-Ile42”; the fragment found entry is on record as “Glu^30-Arg^34; also recorded: Ile^42-Lys^50”. The not cleaved entry in the data set with pepsin is “stable in SGF for 24 h”.

For “SANQCAVPAKDRVDCGYPHVTPKECNNRGCCFDSRIPGVPWCFKPLQE-NH2 (disulfide 5-31, 15-30, 25-42) [TFF3_7-54]”, the “stability in SGF over 24 h (in words)” value in data set [1] (SGF with pepsin, pH 1.3, 37 °C, 24 h, RP-HPLC and MS) is given as “remained stable”. The half-life at 50 μM in data set [1] (simulated gastric fluid (SGF) with pepsin, pH 1.3, 15 μL of 1 mM stock in 285 μL, 37 °C, monitored over 24 h, RP-HPLC/LC-MS, read-out: half-life in SGF) was above 24 h; in data set [2] (pH 6.8, 15 μL of 1 mM stock in 285 μL, 37 °C, monitored over 24 h, RP-HPLC/LC-MS, read-out: half-life in SIF), above 24 h. For the same substance, the metabolised at 24 h, 50 μM in data set [2] (pH 6.8, 37 °C, 24 h, RP-HPLC/MS, read-out: degradation in SIF within 24 h) is around 25%. Also, the “reduction of etoposide-induced cell death (caspase-3/7 active objects)” value with SH-SY5Y cells is “active in the anti-apoptosis assay, equivalent to TFF3 and TFF3 homodimer”.
